{"source": "patent US10947188B2", "about": "“Small molecule ferroptosis inducers” (THE TRUSTEES OF COLUMBIA UNIVERSITY IN THE CITY OF NEW YORK, priority 2016, dated 2021)", "key": {"BJeLR": {"tested_on": "BJeLR", "assay": "Modulatory profiling: Alamar Blue viability, lethal compound cotreated with death modulator (EC50, AUC); as to AUC HT.BHA: reference of the scale not given here; as to AUC HT.EGTA: reference of the scale not given here; as to AUC, modulator BJ.3MA: reference of the scale not given here; as to AUC, modulator BJ.ALLN: reference of the scale not given here; as to AUC, modulator BJ.Boc D: reference of the scale not given here; as to AUC, modulator BJ.CHX: reference of the scale not given here; as to AUC, modulator BJ.Co2+: reference of the scale not given here; as to AUC, modulator BJ.DPQ: reference of the scale not given here; as to AUC, modulator BJ.Gd3+: reference of the scale not given here; as to AUC, modulator BJ.LNAME: reference of the scale not given here; as to AUC, modulator BJ.NAD+: reference of the scale not given here; as to AUC, modulator BJ.NMMA: reference of the scale not given here; as to AUC, modulator BJ.Nec-1: reference of the scale not given here; as to AUC, modulator BJ.Pepstatin: reference of the scale not given here; as to AUC, modulator BJ.TLCK: reference of the scale not given here", "format": "cell-based, human", "design": "AUC, modulator BJ.Gd3+ / AUC, modulator BJ.LNAME / AUC, modulator BJ.Lmin / AUC, modulator BJ.3MA / AUC, modulator BJ.ALLN / AUC, modulator BJ.Boc D / AUC, modulator BJ.CHX / AUC, modulator BJ.Co2+ / AUC, modulator BJ.Nec-1 / AUC, modulator BJ.Pepstatin / AUC, modulator BJ.TLCK / AUC, modulator BJ.atoc / AUC, modulator BJ.trolox / AUC, modulator BJ.zVAD: unit not given beside the values", "conditions": "BJeLR cells, modulatory profile value (AUC); for AUC, modulator BJ.3MA: lethal compound cotreated with modulator 3MA; for AUC, modulator BJ.ALLN: lethal compound cotreated with modulator ALLN; for AUC, modulator BJ.Boc D: lethal compound cotreated with modulator Boc D; for AUC, modulator BJ.CHX: lethal compound cotreated with modulator CHX; for AUC, modulator BJ.Co2+: lethal compound cotreated with modulator Co2+; for AUC, modulator BJ.DPQ: lethal compound cotreated with modulator DPQ; for AUC, modulator BJ.Gd3+: lethal compound cotreated with modulator Gd3+; for AUC, modulator BJ.LNAME: lethal compound cotreated with modulator LNAME; for AUC, modulator BJ.Lmin/NAD+: lethal compound cotreated with modulator Lmin/NAD+; for AUC, modulator BJ.Lmin: lethal compound cotreated with modulator Lmin; for AUC, modulator BJ.NAD+: lethal compound cotreated with modulator NAD+; for AUC, modulator BJ.NMMA: lethal compound cotreated with modulator NMMA; for AUC, modulator BJ.Nec-1: lethal compound cotreated with modulator Nec-1; for AUC, modulator BJ.Pepstatin: lethal compound cotreated with modulator Pepstatin; for AUC, modulator BJ.TLCK: lethal compound cotreated with modulator TLCK"}, "HT-1080": {"tested_on": "HT-1080", "assay": "Modulatory profiling: Alamar Blue viability, lethal compound cotreated with death modulator (EC50, AUC)", "format": "cell-based", "design": "AUC, modulator HT.3MA / AUC, modulator HT.ALLN / AUC HT.ATA / AUC HT.ActD / AUC HT.BHA / AUC HT.BHT / AUC HT.BocD / AUC HT.CHX / AUC HT.Co2+ / AUC HT.DPQ / AUC HT.EGTA / AUC HT.Lmim / AUC HT.NAD+ / AUC HT.Nec-1 / AUC HT.SP600125 / AUC HT.TLCK / AUC HT.U0126: unit not given beside the values", "conditions": "for AUC HT.ATA: HT-1080, modulator ATA; for AUC HT.ActD: HT-1080, modulator ActD; for AUC HT.BHA: HT-1080, modulator BHA; for AUC HT.BHT: HT-1080, modulator BHT; for AUC HT.BocD: HT-1080, modulator BocD; for AUC HT.CHX: HT-1080, modulator CHX; for AUC HT.Co2+: HT-1080, modulator Co2+; for AUC HT.CspA: HT-1080, modulator CspA; for AUC HT.DPQ: HT-1080, modulator DPQ; for AUC HT.EGTA: HT-1080, modulator EGTA; for AUC HT.Gd3+: HT-1080, modulator Gd3+; for AUC HT.LNAME: HT-1080, modulator LNAME; for AUC HT.Lmim: HT-1080, modulator Lmim; for AUC HT.NAD+: HT-1080, modulator NAD+; for AUC HT.NMMA: HT-1080, modulator NMMA; for HT.atoc (AUC) / HT.bCarotene (AUC) / HT.deferox (AUC) / HT.digoxin (AUC) / HT.trolox (AUC) / HT.zVAD (AUC): HT-1080; for HT.atoc (AUC): modulator atoc; for HT.bCarotene (AUC): modulator bCarotene; for HT.deferox (AUC): modulator deferox; for HT.digoxin (AUC): modulator digoxin; for HT.trolox (AUC): modulator trolox; for HT.zVAD (AUC): modulator zVAD"}}, "data": [{"molecule": "CC1CC2=C(CC1CNCCCN(C)C)C(C)(C)CCC2", "note": "(centres unmarked) [CIL26]", "values": [{"measurement": "AUC, modulator BJ.3MA", "setting": "BJeLR", "result": 0.05124}, {"measurement": "AUC, modulator BJ.ALLN", "setting": "BJeLR", "result": "−0.0584"}, {"measurement": "AUC, modulator BJ.Boc D", "setting": "BJeLR", "result": "−0.05574"}, {"measurement": "AUC, modulator BJ.CHX", "setting": "BJeLR", "result": "−0.001733"}, {"measurement": "AUC, modulator BJ.Co2+", "setting": "BJeLR", "result": 0.04871}, {"measurement": "AUC, modulator BJ.DPQ", "setting": "BJeLR", "result": 0.01829}, {"measurement": "AUC, modulator BJ.Gd3+", "setting": "BJeLR", "result": 0.004541}, {"measurement": "AUC, modulator BJ.LNAME", "setting": "BJeLR", "result": "−0.03322"}, {"measurement": "AUC, modulator BJ.Lmin/NAD+", "setting": "BJeLR", "result": 0.09111}, {"measurement": "AUC, modulator BJ.Lmin", "setting": "BJeLR", "result": "−0.0139"}, {"measurement": "AUC, modulator BJ.NAD+", "setting": "BJeLR", "result": 0.005678}, {"measurement": "AUC, modulator BJ.NMMA", "setting": "BJeLR", "result": 0.006781}, {"measurement": "AUC, modulator BJ.Nec-1", "setting": "BJeLR", "result": "−0.03974"}, {"measurement": "AUC, modulator BJ.Pepstatin", "setting": "BJeLR", "result": 0.02268}, {"measurement": "AUC, modulator BJ.TLCK", "setting": "BJeLR", "result": "−0.06133"}, {"measurement": "AUC, modulator BJ.atoc", "setting": "BJeLR; lethal compound cotreated with modulator atoc", "result": 0.05008}, {"measurement": "AUC, modulator BJ.trolox", "setting": "BJeLR; lethal compound cotreated with modulator trolox", "result": 0.03147}, {"measurement": "AUC, modulator BJ.zVAD", "setting": "BJeLR; lethal compound cotreated with modulator zVAD", "result": "−0.003259"}, {"measurement": "AUC HT.ATA", "setting": "HT-1080", "result": 0.04192}, {"measurement": "AUC HT.ActD", "setting": "HT-1080", "result": "−0.002488"}, {"measurement": "AUC HT.BHA", "setting": "HT-1080", "result": "−0.1441"}, {"measurement": "AUC HT.BHT", "setting": "HT-1080", "result": "−0.1215"}, {"measurement": "AUC HT.BocD", "setting": "HT-1080", "result": 0.008992}, {"measurement": "AUC HT.CHX", "setting": "HT-1080", "result": "−0.02052"}, {"measurement": "AUC HT.Co2+", "setting": "HT-1080", "result": "−0.02744"}, {"measurement": "AUC HT.CspA", "setting": "HT-1080", "result": "−0.04225"}, {"measurement": "AUC HT.DPQ", "setting": "HT-1080", "result": 0.02987}, {"measurement": "AUC HT.EGTA", "setting": "HT-1080", "result": 0.009998}, {"measurement": "AUC HT.Gd3+", "setting": "HT-1080", "result": "−0.005334"}, {"measurement": "AUC HT.LNAME", "setting": "HT-1080", "result": 0.001215}, {"measurement": "AUC HT.Lmim", "setting": "HT-1080", "result": "−0.004"}, {"measurement": "AUC HT.NAD+", "setting": "HT-1080", "result": "−0.01406"}, {"measurement": "AUC HT.NMMA", "setting": "HT-1080", "result": "−0.009692"}, {"measurement": "HT.atoc (AUC)", "setting": "HT-1080", "result": 0.04649}, {"measurement": "HT.bCarotene (AUC)", "setting": "HT-1080", "result": "−0.03349"}, {"measurement": "HT.deferox (AUC)", "setting": "HT-1080", "result": "−0.1033"}, {"measurement": "HT.digoxin (AUC)", "setting": "HT-1080", "result": "−0.03641"}, {"measurement": "HT.trolox (AUC)", "setting": "HT-1080", "result": "−0.0327"}, {"measurement": "HT.zVAD (AUC)", "setting": "HT-1080", "result": "−0.01226"}, {"measurement": "AUC, modulator HT.3MA", "setting": "HT-1080; HT-1080 cells, lethal compound cotreated with modulator 3MA, modulatory profile value (AUC)", "result": 0.0321}, {"measurement": "AUC, modulator HT.ALLN", "setting": "HT-1080; HT-1080 cells, lethal compound cotreated with modulator ALLN, modulatory profile value (AUC)", "result": 0.001592}]}, {"molecule": "CC(C(NNC(=O)c1ccc(C(F)(F)F)cc1)c1ccc(Br)cc1)[N+](=O)[O-]", "note": "(centres unmarked) [CIL87]", "values": [{"measurement": "AUC, modulator BJ.3MA", "setting": "BJeLR", "result": "−0.002764"}, {"measurement": "AUC, modulator BJ.ALLN", "setting": "BJeLR", "result": "−0.08721"}, {"measurement": "AUC, modulator BJ.Boc D", "setting": "BJeLR", "result": "−0.0134"}, {"measurement": "AUC, modulator BJ.CHX", "setting": "BJeLR", "result": 0.295}, {"measurement": "AUC, modulator BJ.Co2+", "setting": "BJeLR", "result": 0.1416}, {"measurement": "AUC, modulator BJ.DPQ", "setting": "BJeLR", "result": "−0.03202"}, {"measurement": "AUC, modulator BJ.Gd3+", "setting": "BJeLR", "result": 0.0149}, {"measurement": "AUC, modulator BJ.LNAME", "setting": "BJeLR", "result": 0.02319}, {"measurement": "AUC, modulator BJ.Lmin/NAD+", "setting": "BJeLR", "result": 0.07639}, {"measurement": "AUC, modulator BJ.Lmin", "setting": "BJeLR", "result": 0.0007714}, {"measurement": "AUC, modulator BJ.NAD+", "setting": "BJeLR", "result": "−0.03293"}, {"measurement": "AUC, modulator BJ.NMMA", "setting": "BJeLR", "result": "−0.007384"}, {"measurement": "AUC, modulator BJ.Nec-1", "setting": "BJeLR", "result": "−0.0482"}, {"measurement": "AUC, modulator BJ.Pepstatin", "setting": "BJeLR", "result": "−0.03283"}, {"measurement": "AUC, modulator BJ.TLCK", "setting": "BJeLR", "result": 0.003206}, {"measurement": "AUC HT.ATA", "setting": "HT-1080", "result": 0.1137}, {"measurement": "AUC HT.ActD", "setting": "HT-1080", "result": "−0.007586"}, {"measurement": "AUC HT.BHA", "setting": "HT-1080", "result": "−0.003358"}, {"measurement": "AUC HT.BHT", "setting": "HT-1080", "result": "−0.08317"}, {"measurement": "AUC HT.BocD", "setting": "HT-1080", "result": "−0.007134"}, {"measurement": "AUC HT.CHX", "setting": "HT-1080", "result": 0.0673}, {"measurement": "AUC HT.Co2+", "setting": "HT-1080", "result": 0.03163}, {"measurement": "AUC HT.CspA", "setting": "HT-1080", "result": "−0.05358"}, {"measurement": "AUC HT.DPQ", "setting": "HT-1080", "result": "−0.02562"}, {"measurement": "AUC HT.EGTA", "setting": "HT-1080", "result": 0.005305}, {"measurement": "AUC HT.Gd3+", "setting": "HT-1080", "result": "−0.02756"}, {"measurement": "AUC HT.LNAME", "setting": "HT-1080", "result": 0.005257}, {"measurement": "AUC HT.Lmim", "setting": "HT-1080", "result": "−0.002116"}, {"measurement": "AUC HT.NAD+", "setting": "HT-1080", "result": "−0.001926"}, {"measurement": "AUC HT.NMMA", "setting": "HT-1080", "result": "−0.01237"}, {"measurement": "HT.atoc (AUC)", "setting": "HT-1080", "result": 0.05929}, {"measurement": "HT.bCarotene (AUC)", "setting": "HT-1080", "result": 0.01927}, {"measurement": "HT.deferox (AUC)", "setting": "HT-1080", "result": 0.07034}, {"measurement": "HT.digoxin (AUC)", "setting": "HT-1080", "result": 0.04582}, {"measurement": "HT.trolox (AUC)", "setting": "HT-1080", "result": "−0.03188"}, {"measurement": "HT.zVAD (AUC)", "setting": "HT-1080", "result": 0.02258}]}]}
